# Legend:
# [1] = system: immature DC injected into the ear pinna; assay: Migration of CFSE-labelled injected DC to the draining auricular lymph node (flow cytometry); format: in vivo, mice (C57BL/6); settings: interval between adjuvant application and DC injection extended to 4 hours; determined as in FIG. 3
# Procedure: FIG. 3 depicts flow cytometry analysis of the migration of DC to the draining lymph nodes. Immature or mature DC were transfected with OVA mRNA and incubated with CFSE. Cells were washed and 3×10^5 DC were injected into the ear pinna. […] United States of America). Twenty-four hours post […] of the DC, the draining auricular lymph node was dissected, a cell suspension generated, and cells were analyzed by flow cytometry. To identify the DC subset, cells gated for CD11c^+ granular cells (upper panels) were analyzed for class II expression and CFSE content (lower panels). Injected DC are class II^high CFSE^+ (UR quadroon) whereas the class II^highCFSE^− represent the resident and newly arrived, endogenous, DC (UL quadroon). The percentages shown in the UR quadroons constitute the percentage of CFSE^+ DC injected into the ear found in the lymph node.
# Marrow from tibias and femurs of C57BL/6 mice were harvested followed by treatment of the precursors with ammonium chloride Tris buffer for 3 min at 37° C. to deplete the red blood cells. The precursors were plated in RPMI-5% FCS with GM-CSF (15 ng/ml) and IL-4 (10 ng/ml). GM-CSF-containing supernatant was harvested after 24 h capillary culture from GM-CSF producing melanoma cell line (F10.9/GM-CSF) and IL-4 was obtained from Peprotech (Rocky Hill, N.J., United States of America). The concentration of GM-CSF used was determined by ELISA. […]
# [2] = system: OVA-expressing EL-4 cells; assay: Induction of OVA-specific CTL in mice immunized with OVA mRNA transfected DC (standard cytotoxicity assay); format: in vivo, mice (C57BL/6)
# Procedure: FIG. 4 is a graph depicting the induction of OVA CTL in mice immunized with OVA mRNA transfected DC. Mice were immunized as described in FIG. 3 except that DC were not stained with CFSE. Splenocytes were harvested after 8 days and either analyzed directly for CTL (left panel) or incubated for 5 days in the presence of OVA mRNA transfected DC (right panel). CTL activity was determined using a standard cytotoxicity assay and OVA-expressing EL-4 cells, and EL-4 cells as targets. (iDC: immature DC; mDC: mature DC; solid gray square: iDC and OVA-expressing EL-4 cells; solid black oval: […] adjuvant and OVA-expressing EL-4 cells; solid black square: mDC and OVA-expressing EL-4 cells; open gray square: iDC and EL4 cells; open black oval: […] adjuvant and EL4 cells; open black square: mDC and EL4 cells). FIG. 5 is a graph depicting the induction of OVA specific CTL with immature DC during in situ maturation with Imiquimod (sold under the trademark […] by 3M of St. Paul, Minn., United States of America) and poly arginine. Experimental details are as described for FIG. 4. Here, in addition to […] adjuvant, Imiquimod ([…] brand) and poly arginine (poly-arg) were used to induce local “inflammation” prior to immunization with the OVA mRNA transfected immature DC. The […] clinically approved cream formulation of Imiquimod was applied to the ear surface 15 minutes prior to DC injection. Poly-arg was injected into the ear pinna (50 μl; 100 μg/ml) 15 minutes prior to DC injection. (open square: iDC; solid circle: […] adjuvant; solid triangle: […] adjuvant; open triangle: iDC+poly-arginine; solid square: mDC). FIG. 6 is a graph depicting the induction of OVA specific CTL with immature DC during in situ maturation with Imiquimod ([…] brand). […] Antigen loaded immature or mature DC were injected into the ear pinna and mice were evaluated for (a) migration of the DC to the draining auricular lymph node or (b) induction of OVA CTL. […] See […], Mohr H., “A fluorescence-based assay for quantitation of lymphokine-activated killer cell activity”, J Immunol Methods (1989) 119:45-51.
# [3] = FIG. 5, injection site pretreated 15 minutes prior to injection of OVA mRNA transfected immature DC
molecule,measurement,setting,value
CC(C)Cn1cnc2c(N)nc3ccccc3c21 [Imiquimod],"migration, % of the injected DC",[1],9.2%
same,CTL response (OVA-specific CTL),[2]; [3],almost as effective as ADJUPRIME™ adjuvant
same,CTL response (OVA-specific CTL),"[2]; FIG. 6, Imiquimod (ALDARA brand) applied 4 hours before injection of OVA mRNA transfected immature DC",more potent CTL response than the ex vivo matured DC
poly arginine [poly-arg],CTL response (OVA-specific CTL),[2]; [3],the effect of poly-arg is small
